From patent US20260372305A1, “A METHOD FOR CONTROLLING WEEDS” (SYNGENTA CROP PROTECTION AG, priority 2022, published 2026)

How the values were obtained:
Format in all cases: in vivo
[1] = system: Amaranthus palmeri, PPO inhibitor sensitive population ('Sensitive'); test: Postemergence control of PPO inhibitor sensitive Amaranthus palmeri (Example 1); settings: for use rate achieving complete control (no surviving plants) of the 'sensitive' population / % Survival out of 14 repetitions: postemergence, 14 days after application; for % Survival out of 14 repetitions: Sensitive, Adigor 0.5% by volume
Description: (§1) The commercial standard PPO inhibitor fomesafen and compound 1 of the present application were applied to two Amaranthus palmeri populations in order to determine the impact of mutations at amino acid 98 in PPX2L from the wild-type arginine to a glycine.
(§2) The two A. palmeri populations used were as follows: a known PPO inhibitor sensitive population (‘Sensitive’), a population of which each individual was known to be homozygous for a glycine at amino acid 98 in the protoporphyrinogen oxidase gene PPX2L (‘98GG’).
(§3) Seeds were sown in seed trays containing ericaceous compost and covered with vermiculite. When approximately 1 inch in height plants were transplanted 1 per pot into 3-inch diameter pots containing ericaceous compost. The pots were watered and maintained in a glasshouse providing a 16 H photoperiod of 180 μmol m^−2 s^−1 with 24 °C daytime temperatures and 18 °C night-time temperatures and 65% relative humidity until 3 inches tall at which point the herbicides were applied at the use rates specified in Table 1 below to 14 individual plants per rate of each of the biotypes.
(§4) All treatments were applied as dilutions in reverse osmosis water and with the commercial adjuvant Adigor® at 0.5% by volume. Prior to dilution with water compound 8 was initially dissolved to a 5% solution in a solvent mixture comprising 11.12% Emulsogen EL 360, 44.44% Dowanol DPM and 44.44% N-methyl pyrrolidone. Herbicide applications were carried out in a track sprayer with a flat fan nozzle applying the herbicide treatments at a rate of 200 L/ha^−1.
(§5) After treatment, the plants were watered and maintained in a glasshouse providing a 16 H photoperiod of 180 μmol m^−2 s^−1 with 24 °C daytime temperatures and 18 °C night-time temperatures and 65% relative humidity until 14 days after application at which point they were assessed on a ‘dead or alive’ basis. The plants still alive at this point were classed as surviving the herbicide application and the averaged results of this assessment are presented in Table 1.

[2] = system: Amaranthus palmeri, homozygous for glycine at amino acid 98 in PPX2L ('98GG', R98G); test: Postemergence control of Amaranthus palmeri with R98G mutation in PPX2L (Example 1); settings: for % Survival out of 14 repetitions: R98G, postemergence, 14 days after application, Adigor 0.5% by volume
Description: as §1, §2, §3, §4, §5

[3] = system: Amaranthus tuberculatus, Sensitive; test: Postemergence control of sensitive population (Example 2); settings: Agridex 1% by volume

Structure (SMILES)	use rate achieving complete control (no surviving plants) of the 'sensitive' population ([1]; 'sensitive' population) [g ai/ha^−1]	% Survival out of 14 repetitions ([1]; 1 g ai/ha^−1) [%]	% Survival out of 14 repetitions ([1]; 2 g ai/ha^−1) [%]	% Survival out of 14 repetitions ([1]; 4 g ai/ha^−1) [%]	% Survival out of 14 repetitions ([1]; 8 g ai/ha^−1) [%]	% Survival out of 14 repetitions ([1]; 16 g ai/ha^−1) [%]	% Survival out of 14 repetitions ([1]; 32 g ai/ha^−1) [%]	% Survival out of 14 repetitions ([1]; 64 g ai/ha^−1) [%]	% Survival out of 14 repetitions ([2]; 1 g ai/ha^−1) [%]	% Survival out of 14 repetitions ([2]; 2 g ai/ha^−1) [%]	% Survival out of 14 repetitions ([2]; 4 g ai/ha^−1) [%]	% Survival out of 14 repetitions ([2]; 8 g ai/ha^−1) [%]	% Survival out of 14 repetitions ([2]; 16 g ai/ha^−1) [%]	% Survival out of 14 repetitions ([2]; 32 g ai/ha^−1) [%]	% Survival out of 14 repetitions ([2]; 64 g ai/ha^−1) [%]	also measured
CCOC(=O)[C@]1(C)CC(c2cc(-n3c(=O)n(C)c(=S)n(C)c3=O)c(F)cc2Cl)=NO1 [compound 1, ethyl (5S)-3-[2-chloro-5-(3,5-dimethyl-2,6-dioxo-4-thioxo-1,3,5-triazinan-1-yl)-4-fluoro-phenyl]-5-methyl-4H-isoxazole-5-carboxylate]	≥ 16	100	86	43	7	0	0	0	100	100	100	100	79	79	21	ability for controlling the 'sensitive' population compared with fomesafen ([1]; 'sensitive' population, compared with fomesafen): improved ability compared with fomesafen for controlling the ‘sensitive’ population; % Survival out of 14 repetitions ([1]; 0.5 g ai/ha^−1): 100%; control of '98GG' ([2]; '98GG', 16 g ai/ha^−1 rate, compared with fomesafen): better control of ‘98GG’; % Survival out of 14 repetitions ([2]; 0.5 g ai/ha^−1): 100%; % Survival out of 14 repetitions ([3]; 0.5 g ai/ha^−1, 14 days after application): 100%; % Survival out of 14 repetitions ([3]; 1 g ai/ha^−1, 14 days after application): 100%; % Survival out of 14 repetitions ([3]; 2 g ai/ha^−1, 14 days after application): 86%; % Survival out of 14 repetitions ([3]; 4 g ai/ha^−1, 14 days after application): 43%; % Survival out of 14 repetitions ([3]; 8 g ai/ha^−1, 14 days after application): 14%; % Survival out of 14 repetitions ([3]; 16 g ai/ha^−1, 14 days after application): 0%; % Survival out of 14 repetitions ([3]; 32 g ai/ha^−1, 14 days after application): 0%; % Survival out of 14 repetitions ([3]; 64 g ai/ha^−1, 14 days after application): 0%
CS(=O)(=O)NC(=O)c1cc(Oc2ccc(C(F)(F)F)cc2Cl)ccc1[N+](=O)[O-] [fomesafen, reference compound]	≥ 64	100	100	86	71	14	7	0	100	100	100	100	100	93	93	% Survival out of 14 repetitions ([1]; 128 g ai/ha^−1): 0%; % Survival out of 14 repetitions ([2]; 128 g ai/ha^−1): 93%
